Values after ≈ are worked out from the molar mass of the structure shown.
Tests used:
[1] = test system: Mycobacterium tuberculosis; test: Antimycobacterial activity against Mycobacterium tuberculosis CNCTC My 331/88 after 21 days by micromethod; format: functional; conditions: CNCTC My 331/88, 504 h
[2] = test system: Staphylococcus aureus; test: Antibacterial activity against methicillin-resistant Staphylococcus aureus HK5996/08 after 24 hrs by broth microdilution method; format: functional; conditions: HK5996/08, 24 h
[3] = test system: Mycobacterium avium; test: Antimycobacterial activity against Mycobacterium avium CNCTC My 330/88 after 14 days by micromethod; format: functional; conditions: CNCTC My 330/88, 336 h
[4] = test system: Trichosporon asahii; test: Antifungal activity against Trichosporon asahii 1188 after 24 hrs by broth microdilution method; format: functional; conditions: Trichosporon asahii, 1188, 24 h
[5] = test system: Mycobacterium kansasii; test: Antimycobacterial activity against Mycobacterium kansasii 6509/96 clinical isolate after 14 days by micromethod; format: functional; conditions: 6509/96, 336 h
[6] = test system: Aspergillus fumigatus; test: Antifungal activity against Aspergillus fumigatus 231 after 24 hrs by broth microdilution method; format: functional; conditions: Aspergillus fumigatus, 231, 24 h
[7] = test system: Mycobacterium kansasii; test: Antimycobacterial activity against Mycobacterium kansasii 6509/96 clinical isolate after 21 days by micromethod; format: functional; conditions: 6509/96, 504 h
[8] = Cytotoxicity against human A431 cells assessed as cell viability at 30 uM after 48 hrs by MTS assay relative to control; format: cell-based, A-431; conditions: read-out: Activity
[9] = test system: Trichosporon asahii; test: Antifungal activity against Trichosporon asahii 1188 after 48 hrs by broth microdilution method; format: functional; conditions: Trichosporon asahii, 1188, 48 h
[10] = test system: Staphylococcus epidermidis; test: Antibacterial activity against Staphylococcus epidermidis HK6996/08 after 48 hrs by broth microdilution method; format: functional; conditions: HK6996/08, 48 h
[11] = test system: Mycobacterium kansasii; test: Antimycobacterial activity against Mycobacterium kansasii CNCTC My 235/80 after 21 days by micromethod; format: functional; conditions: CNCTC My 235/80, 504 h
[12] = test system: Candida albicans; test: Antifungal activity against Candida albicans ATCC 44859 after 24 hrs by broth microdilution method; format: functional; conditions: ATCC 44859, 24 h
[13] = test system: Lichtheimia corymbifera; test: Antifungal activity against Absidia corymbifera 272 after 48 hrs by broth microdilution method; format: functional; conditions: Lichtheimia corymbifera, 272, 48 h
[14] = test system: Nakaseomyces glabratus; test: Antifungal activity against Candida glabrata 20/I after 24 hrs by broth microdilution method; format: functional
[15] = test system: Mycobacterium avium; test: Antimycobacterial activity against Mycobacterium avium CNCTC My 330/88 after 21 days by micromethod; format: functional; conditions: CNCTC My 330/88, 504 h
[16] = test system: Escherichia coli; test: Antibacterial activity against Escherichia coli ATCC 8739 after 24 hrs by broth microdilution method; format: functional; conditions: ATCC 8739, 24 h
[17] = test system: Staphylococcus aureus; test: Antibacterial activity against Staphylococcus aureus ATCC 6538 after 24 hrs by broth microdilution method; format: functional; conditions: ATCC 6538, 24 h
[18] = test system: Pichia kudriavzevii; test: Antifungal activity against Candida krusei E28 after 48 hrs by broth microdilution method; format: functional; conditions: E28, 48 h
[19] = test system: Mycobacterium kansasii; test: Antimycobacterial activity against Mycobacterium kansasii CNCTC My 235/80 after 14 days by micromethod; format: functional; conditions: CNCTC My 235/80, 336 h
[20] = test system: Trichophyton mentagrophytes; test: Antifungal activity against Trichophyton mentagrophytes 445 after 72 hrs by broth microdilution method; format: functional; conditions: Trichophyton mentagrophytes, 445, 72 h
[21] = test system: Klebsiella pneumoniae; test: Antibacterial activity against Klebsiella pneumoniae HK11750/08 after 48 hrs by broth microdilution method; format: functional; conditions: HK11750/08, 48 h
[22] = test system: Klebsiella pneumoniae; test: Antibacterial activity against extended spectrum beta-lactamase producing Klebsiella pneumoniae HK14368/08 after 24 hrs by broth microdilution method; format: functional; conditions: HK14368/08, 24 h
[23] = test system: Mycobacterium tuberculosis; test: Antimycobacterial activity against Mycobacterium tuberculosis CNCTC My 331/88 after 14 days by micromethod; format: functional; conditions: CNCTC My 331/88, 336 h
[24] = test system: Enterococcus sp.; test: Antibacterial activity against Enterococcus sp. HK14365/08 after 48 hrs by broth microdilution method; format: functional; conditions: HK14365/08, 48 h
[25] = Cytotoxicity against human HepG2 cells assessed as cell viability at 30 uM after 48 hrs by MTS assay relative to control; format: cell-based; conditions: read-out: Activity
[26] = test system: Pseudomonas aeruginosa; test: Antibacterial activity against Pseudomonas aeruginosa ATCC 9027 after 24 hrs by broth microdilution method; format: functional; conditions: ATCC 9027, 24 h
[27] = test system: A-431; test: Cytotoxicity against human A431 cells assessed as cell viability after 48 hrs by MTS assay; format: cell-based; conditions: A-431, 48 h
[28] = test system: Aspergillus fumigatus; test: Antifungal activity against Aspergillus fumigatus 231 after 48 hrs by broth microdilution method; format: functional; conditions: Aspergillus fumigatus, 231, 48 h
[29] = test system: HepG2; test: Cytotoxicity against human HepG2 cells assessed as cell viability after 48 hrs by MTS assay; format: cell-based; conditions: HepG2, 48 h
[30] = test system: Klebsiella pneumoniae; test: Antibacterial activity against extended spectrum beta-lactamase producing Klebsiella pneumoniae HK14368/08 after 48 hrs by broth microdilution method; format: functional; conditions: HK14368/08, 48 h
[31] = test system: Huh-7; test: Cytotoxicity against human HuH7 cells assessed as cell viability after 48 hrs by MTS assay; format: cell-based; conditions: Huh-7, 48 h
[32] = test system: Mycobacterium kansasii; test: Antimycobacterial activity against Mycobacterium kansasii 6509/96 clinical isolate after 7 days by micromethod; format: functional; conditions: 6509/96, 168 h
[33] = test system: Candida albicans; test: Antifungal activity against Candida albicans ATCC 44859 after 48 hrs by broth microdilution method; format: functional; conditions: ATCC 44859, 48 h
[34] = Cytotoxicity against human HuH7 cells assessed as cell viability at 30 uM after 48 hrs by MTS assay relative to control; format: cell-based, Huh-7; conditions: read-out: Activity
[35] = test system: Pichia kudriavzevii; test: Antifungal activity against Candida krusei E28 after 24 hrs by broth microdilution method; format: functional; conditions: E28, 24 h
[36] = test system: Staphylococcus aureus; test: Antibacterial activity against methicillin-resistant Staphylococcus aureus HK5996/08 after 48 hrs by broth microdilution method; format: functional; conditions: HK5996/08, 48 h
[37] = test system: Lichtheimia corymbifera; test: Antifungal activity against Absidia corymbifera 272 after 24 hrs by broth microdilution method; format: functional; conditions: Lichtheimia corymbifera, 272, 24 h
[38] = test system: Trichophyton mentagrophytes; test: Antifungal activity against Trichophyton mentagrophytes 445 after 120 hrs by broth microdilution method; format: functional; conditions: Trichophyton mentagrophytes, 445, 120 h
[39] = test system: Mycobacterium kansasii; test: Antimycobacterial activity against Mycobacterium kansasii CNCTC My 235/80 after 7 days by micromethod; format: functional; conditions: CNCTC My 235/80, 168 h
[40] = test system: Escherichia coli; test: Antibacterial activity against Escherichia coli ATCC 8739 after 48 hrs by broth microdilution method; format: functional; conditions: ATCC 8739, 48 h
[41] = test system: Nakaseomyces glabratus; test: Antifungal activity against Candida glabrata 20/I after 48 hrs by broth microdilution method; format: functional
[42] = test system: MDCK; test: Cytotoxicity against MDCK cells assessed as cell viability after 48 hrs by MTS assay; format: cell-based; conditions: Canis lupus familiaris
[43] = Selectivity index, ratio of IC50 for human HepG2 cells to MIC for Mycobacterium tuberculosis; format: toxicity; conditions: read-out: Selectivity Index
[44] = Cytotoxicity against MDCK cells assessed as cell viability at 30 uM after 48 hrs by MTS assay relative to control; format: cell-based, Canis lupus familiaris; conditions: dog, read-out: Activity
[45] = test system: Pseudomonas aeruginosa; test: Antibacterial activity against Pseudomonas aeruginosa ATCC 9027 after 48 hrs by broth microdilution method; format: functional; conditions: ATCC 9027, 48 h
[46] = test system: Staphylococcus epidermidis; test: Antibacterial activity against Staphylococcus epidermidis HK6996/08 after 24 hrs by broth microdilution method; format: functional; conditions: HK6996/08, 24 h
[47] = test system: Staphylococcus aureus; test: Antibacterial activity against Staphylococcus aureus ATCC 6538 after 48 hrs by broth microdilution method; format: functional; conditions: ATCC 6538, 48 h
[48] = test system: Enterococcus sp.; test: Antibacterial activity against Enterococcus sp. HK14365/08 after 24 hrs by broth microdilution method; format: functional; conditions: HK14365/08, 24 h
[49] = test system: Candida tropicalis; test: Antifungal activity against Candida tropicalis 156 after 48 hrs by broth microdilution method; format: functional; conditions: Candida tropicalis, 156, 48 h
[50] = test system: Klebsiella pneumoniae; test: Antibacterial activity against Klebsiella pneumoniae HK11750/08 after 24 hrs by broth microdilution method; format: functional; conditions: HK11750/08, 24 h
[51] = test system: Candida tropicalis; test: Antifungal activity against Candida tropicalis 156 after 24 hrs by broth microdilution method; format: functional; conditions: Candida tropicalis, 156, 24 h

For `O=[N+]([O-])c1cc(-c2nnc(SCc3ccc(Cl)c(Cl)c3)o2)cc([N+](=O)[O-])c1`, which MIC [1] is on record?
Its MIC is 0.03 µM (≈ 0.0128 µg/mL).

What about the MIC [2] of the same compound?
The MIC was over 125 µM.

What about the MIC [3] of the same compound?
The MIC was 16 µM (≈ 6.84 µg/mL).

And the MIC [4]?
The MIC was over 125 µM.

What about the MIC [5] of the same compound?
Its MIC is 0.03 µM (≈ 0.0128 µg/mL).

And the MIC [6]?
The MIC was over 125 µM.

And the MIC [7]?
The MIC was 0.03 µM (≈ 0.0128 µg/mL).

And the viability at 48 h, 30 µM [8]?
The viability at 48 h, 30 µM was 126%.

And the MIC [9]?
The MIC was over 125 µM.

What about the MIC [10] of the same compound?
The MIC was over 125 µM.

And the MIC [11]?
Its MIC is 0.03 µM (≈ 0.0128 µg/mL).

What about the MIC [12] of the same compound?
The MIC was over 125 µM.

What about the MIC [13] of the same compound?
Its MIC is over 125 µM.

And the MIC [14]?
Its MIC is over 125 µM.

And the MIC [15]?
Its MIC is 32 µM (≈ 13.7 µg/mL).

And the MIC [16]?
The MIC was over 125 µM.

And the MIC [17]?
The MIC was over 125 µM.

What about the MIC [18] of the same compound?
Its MIC is over 125 µM.

And the MIC [19]?
The MIC was 0.03 µM (≈ 0.0128 µg/mL).

And the MIC [20]?
The MIC was over 125 µM.

And the MIC [21]?
Its MIC is over 125 µM.

What about the MIC [22] of the same compound?
The MIC was over 125 µM.

And the MIC [23]?
The MIC was 0.03 µM (≈ 0.0128 µg/mL).

And the MIC [24]?
Its MIC is over 125 µM.

What about the viability at 48 h, 30 µM [25] of the same compound?
Its viability at 48 h, 30 µM is 125%.

What about the MIC [26] of the same compound?
Its MIC is over 125 µM.

What about the IC50 [27] of the same compound?
Its IC50 is over 30 µM.

What about the MIC [28] of the same compound?
The MIC was over 125 µM.

What about the IC50 [29] of the same compound?
The IC50 was over 30 µM.

What about the MIC [30] of the same compound?
Its MIC is over 125 µM.

And the IC50 [31]?
The IC50 was over 30 µM.

And the MIC [32]?
The MIC was 0.03 µM (≈ 0.0128 µg/mL).

And the MIC [33]?
The MIC was over 125 µM.

What about the viability at 48 h, 30 µM [34] of the same compound?
The viability at 48 h, 30 µM was 153%.

What about the MIC [35] of the same compound?
Its MIC is over 125 µM.

And the MIC [36]?
Its MIC is over 125 µM.

What about the MIC [37] of the same compound?
The MIC was over 125 µM.

What about the MIC [38] of the same compound?
Its MIC is over 125 µM.

What about the MIC [39] of the same compound?
The MIC was 0.03 µM (≈ 0.0128 µg/mL).

What about the MIC [40] of the same compound?
The MIC was over 125 µM.

And the MIC [41]?
The MIC was over 125 µM.

And the IC50 [42]?
Its IC50 is over 30 µM.

What about the selectivity ratio [43] of the same compound?
The selectivity ratio was over 1000.

What about the viability at 48 h, 30 µM [44] of the same compound?
Its viability at 48 h, 30 µM is 91%.

And the MIC [45]?
Its MIC is over 125 µM.

What about the MIC [46] of the same compound?
The MIC was over 125 µM.

And the MIC [47]?
The MIC was over 125 µM.

What about the MIC [48] of the same compound?
The MIC was over 125 µM.

What about the MIC [49] of the same compound?
The MIC was over 125 µM.

What about the MIC [50] of the same compound?
The MIC was over 125 µM.

What about the MIC [51] of the same compound?
Its MIC is over 125 µM.
